Patent US11091478B2 (Fochon Pharmaceuticals, Ltd., priority 2017, dated 2021)
Where two headings read alike, the source gives them in different places.

Legend:
DOHH2 cells = assay: Cell proliferation assay (MTS), DOHH2 cells, 120 h; assay type: cell-based
Outline: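 Proliferation was scored by MTS (2 h, then SDS stop, A490 with 650 nm reference) and IC50 derived. Compound ran at nine final concentrations from 1.5 to 10000 nM. DOHH2 were incubated 120 h and RS4;11 72 h, both plated at 5000 cells/well in RPMI-1640 plus 10% FBS.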

RS4;11 cells = assay: Cell proliferation assay (MTS), RS4;11 cells, 72 h; assay type: cell-based
Description: Cell Proliferation Assays
MTS testing kit was purchased from Promega. The RPMI-1640, Fetal bovine serum and Penicillin-Streptomycin were purchased from Gibco. Dimethyl sulfoxide (DMSO) was purchased from Sigma.
To investigate whether a compound is able to inhibit the activity of BCL-2 in cells, a mechanism-based assay using DOHH2 (DSMZ No.® ACC 47) and RS4;11 (ATCC® CRL-1873™) cell was developed. In this assay, inhibition of Bcl-2 was detected by the inhibition of DOHH2 cells proliferation. DOHH2 cells were cultured in culture flasks to 40-80% confluence in RPMI-1640 plus 10% fetal bovine serum. Cells were collected and plated onto 96-well plates at desired cell density (5000 cells/well). Plates were incubated overnight at 37° C., with 5% CO2 to adhere. Compounds were added to the plates, and the final compound concentrations were 10000, 3333, 1111, […], 124, 41, 14, 4.6 and 1.5 nM. Plates plated with DOHH2 or RS4;11 cells were placed at 37° C., with 5% CO2 for 120 h (DOHH2) or 72 h (RS4;11) respectively. 20 μl MTS/100 μl medium mixture solution were added to each well and incubate the plates for exactly 2 hours. The reaction was stopped by adding 25 μl 10% SDS per well. Measure absorbance at 490 nm and 650 nm (reference wavelength). IC50 was calculated using GraphPad Prism 5.0.
Select compounds prepared as described above were assayed according to the biological procedures described herein.

| SMILES | IC50 (DOHH2 cells) [nM] | IC50 (RS4;11 cells) [nM] | IC50 (DOHH2 cells; Homo sapiens, DOHH-2, 120 h) [nM] | IC50 (RS4;11 cells; Homo sapiens, RS4-11, 72 h) [nM] |
| --- | --- | --- | --- | --- |
| COC1CCC([C@H]2COc3cc(S(=O)(=O)NC(=O)c4ccc(N5CCN(CC6=C(c7ccc(Cl)cc7)CC(C)(C)CC6)CC5)cc4Oc4cnc5[nH]ccc5c4)cc([N+](=O)[O-])c3N2)CC1 (stereo partly drawn) [Example 2-247B, (S)-2-((1H-pyrrolo[2,3-b]pyridin-5-yl)oxy)-4-(4-((4′-chloro-5,5-dimethyl-3,4,5,6-tetra-hydro-[1,1′-biphenyl]-2-yl)methyl)piperazin-1-yl)-N-((3-(4-methoxycyclohexyl)-5-nitro-3,4-dihydro-2H-benzo[b][1,4]oxazin-7-yl)sulfonyl)benzamide] | 36 | 45 | – | – |
| CC1(C)CCC(CN2CCN(c3ccc(C(=O)NS(=O)(=O)c4cc5c(c([N+](=O)[O-])c4)N[C@H](Cc4ccccc4Cl)CO5)c(Oc4cnc5[nH]ccc5c4)c3)CC2)=C(c2ccc(Cl)cc2)C1 [Example 2-159, (R)-2-((1H-pyrrolo[2,3-b]pyridin-5-yl)oxy)-4-(4-((4′-chloro-5,5-dimethyl-3,4,5,6-tetra-hydro-[1,1′-biphenyl]-2-yl)methyl)piperazin-1-yl)-N-((3-(2-chlorobenzyl)-5-nitro-3,4-dihydro-2H-benzo[b][1,4]oxazin-7-yl)sulfo-nyl)benzamide] | – | – | 47 | 29 |
| CN1CCC([C@H]2COc3cc(S(=O)(=O)NC(=O)c4ccc(N5CCN(CC6=C(c7ccc(Cl)cc7)CC(C)(C)CC6)CC5)cc4Oc4cnc5[nH]ccc5c4)cc([N+](=O)[O-])c3N2)CC1 [Example 2-233, (S)-2-((1H-pyrrolo[2,3-b]pyridin-5-yl)oxy)-4-(4-((4′-chloro-5,5-dimethyl-3,4,5,6-tetra-hydro-[1,1′-biphenyl]-2-yl)methyl)piperazin-1-yl)-N-((3-(1-methylpiperidin-4-yl)-5-ni-tro-3,4-dihydro-2H-benzo[b][1,4]oxazin-7-yl)sulfonyl)benzamide] | – | – | 13 | 17 |
| CC1(C)CCC(CN2CCN(c3ccc(C(=O)NS(=O)(=O)c4cc5c(c([N+](=O)[O-])c4)N[C@@H](CCN4CCOCC4)CS5)c(Oc4cnc5[nH]ccc5c4)c3)CC2)=C(c2ccc(Cl)cc2)C1 [Example 3-20, (S)-2-((1H-pyrrolo[2,3-b]pyridin-5-yl)oxy)-4-(4-((4′-chloro-5,5-dimethyl-3,4,5,6-tetra-hydro-[1,1′-biphenyl]-2-yl)methyl)piperazin-1-yl)-N-((3-(2-morpholinoethyl)-5-nitro-3,4-dihydro-2H-benzo[b][1,4]thiazin-7-yl)sulfonyl)benzamide] | – | – | 9 | 2 |
| CC1(C)CCC(CN2CCN(c3ccc(C(=O)NS(=O)(=O)c4cc5c(c([N+](=O)[O-])c4)N[C@@H](CC4CCC(C)(O)CC4)CO5)c(Oc4cnc5[nH]ccc5c4)c3)CC2)=C(c2ccc(Cl)cc2)C1 (stereo partly drawn) [Example 2-216, (S)-2-((1H-pyrrolo[2,3-b]pyridin-5-yl)oxy)-4-(4-((4′-chloro-5,5-dimethyl-3,4,5,6-tetra-hydro-[1,1′-biphenyl]-2-yl)methyl)piperazin-1-yl)-N-((3-((4-hydroxy-4-methylcyclohex-yl)methyl)-5-nitro-3,4-dihydro-2H-benzo [b][1,4]oxazin-7-yl)sulfonyl)benzamide] | – | – | 268 | 13 |
| CC1(C)CCC(CN2CCN(c3ccc(C(=O)NS(=O)(=O)c4cc5c(c([N+](=O)[O-])c4)N[C@@H](CCN4CCC(C)(O)CC4)C5)c(Oc4cnc5[nH]ccc5c4)c3)CC2)=C(c2ccc(Cl)cc2)C1 [Example 1-17, (R)-2-((1H-pyrrolo[2,3-b]pyridin-5-yl)oxy)-4-(4-((4′-chloro-5,5-dimethyl-3,4,5,6-tetra-hydro-[1,1′-biphenyl]-2-yl)methyl)piperazin-1-yl)-N-((2-(2-(4-hydroxy-4-methylpiper-idin-1-yl)ethyl)-7-nitroindolin-5-yl)sulfonyl) benzamide] | – | – | 61 | 56 |
| CC1(C)CCC(CN2CCN(c3ccc(C(=O)NS(=O)(=O)c4cc5c(c([N+](=O)[O-])c4)N[C@H](CN4CCOCC4)CS5)c(Oc4cnc5[nH]ccc5c4)c3)CC2)=C(c2ccc(Cl)cc2)C1 [Example 3-3, (R)-2-((1H-pyrrolo[2,3-b]pyridin-5-yl)oxy)-4-(4-((4′-chloro-5,5-dimethyl-3,4,5,6-tetra-hydro-[1,1′-biphenyl]-2-yl)methyl)piperazin-1-yl)-N-((3-(morpholinomethyl)-5-nitro-3,4-dihydro-2H-benzo[b][1,4]thiazin-7-yl)sulfonyl)benzamide] | – | – | 58 | 35 |
| CC1(C)CCC(CN2CCN(c3ccc(C(=O)NS(=O)(=O)c4cc5c(c([N+](=O)[O-])c4)N[C@H](CCO)CS5)c(Oc4cnc5[nH]ccc5c4)c3)CC2)=C(c2ccc(Cl)cc2)C1 [Example 3-11, (R)-2-((1H-pyrrolo[2,3-b]pyridin-5-yl)oxy)-4-(4-((4′-chloro-5,5-dimethyl-3,4,5,6-tetra-hydro-[1,1′-biphenyl]-2-yl)methyl)piperazin-1-yl)-N-((3-(2-hydroxyethyl)-5-nitro-3,4-dihydro-2H-benzo[b][1,4]thiazin-7-yl)sulfonyl) benzamide] | – | – | 16 | 11 |
| CC1(C)CCC(CN2CCN(c3ccc(C(=O)NS(=O)(=O)c4cc5c(c([N+](=O)[O-])c4)N[C@H](Cc4ccccn4)CO5)c(Oc4cnc5[nH]ccc5c4)c3)CC2)=C(c2ccc(Cl)cc2)C1 [Example 2-199, (R)-2-((1H-pyrrolo[2,3-b]pyridin-5-yl)oxy)-4-(4-((4′-chloro-5,5-dimethyl-3,4,5,6-tetra-hydro-[1,1′-biphenyl]-2-yl)methyl)piperazin-1-yl)-N-((5-nitro-3-(pyridin-2-ylmethyl)-3,4-dihydro-2H-benzo[b][1,4]oxazin-7-yl)sulfonyl)benzamide] | – | – | 55 | 18 |
| CC1(C)CCC(CN2CCN(c3ccc(C(=O)NS(=O)(=O)c4cc5c(c([N+](=O)[O-])c4)N[C@H](CN4CCOCC4)C5)c(Oc4cnc5[nH]ccc5c4)c3)CC2)=C(c2ccc(Cl)cc2)C1 [Example 1-1, (S)-2-((1H-pyrrolo[2,3-b]pyridin-5-yl)oxy)-4-(4-((4′-chloro-5,5-dimethyl-3,4,5,6-tetrahydro-[1,1′-biphenyl]-2-yl)methyl)piperazin-1-yl)-N-((2-(morpholinomethyl)-7-nitroindolin-5-yl)sulfonyl)benzamide] | – | – | 80 | 48 |
| CC(C)[C@H]1COc2cc(S(=O)(=O)NC(=O)c3ccc(N4CCN(CC5=C(c6ccc(Cl)cc6)CC(C)(C)CC5)CC4)cc3Oc3cnc4[nH]ccc4c3)cc([N+](=O)[O-])c2N1 [Example 2-113, (S)-2-((1H-pyrrolo[2,3-b]pyridin-5-yl)oxy)-4-(4-((4′-chloro-5,5-dimethyl-3,4,5,6-tetra-hydro-[1,1′-biphenyl]-2-yl)methyl)piperazin-1-yl)-N-((3-isopropyl-5-nitro-3,4-dihydro-2H-benzo[b][1,4]oxazin-7-yl)sulfonyl) benzamide] | – | – | 20 | 6 |
| COc1ccc(C[C@@H]2COc3cc(S(=O)(=O)NC(=O)c4ccc(N5CCN(CC6=C(c7ccc(Cl)cc7)CC(C)(C)CC6)CC5)cc4Oc4cnc5[nH]ccc5c4)cc([N+](=O)[O-])c3N2)nc1 [Example 2-200, (R)-2-((1H-pyrrolo[2,3-b]pyridin-5-yl)oxy)-4-(4-((4′-chloro-5,5-dimethyl-3,4,5,6-tetra-hydro-[1,1′-biphenyl]-2-yl)methyl)piperazin-1-yl)-N-((3-((5-methoxypyridin-2-yl)meth-yl)-5-nitro-3,4-dihydro-2H-benzo[b][1,4]oxazin-7-yl)sulfonyl)benzamide] | – | – | 218 | 3 |
